Measured values as given in ChEMBL document CHEMBL4406824, “Phenolic N-monosubstituted carbamates: Antitubercular and toxicity evaluation of multi-targeting compounds” (Eur J Med Chem, 2019).
pIC50: −log10 of the molar value. Converted amounts (≈) assume the structure as drawn.

Tests used:
Mycobacterium avium [1] = assay: Antimycobacterial activity against Mycobacterium avium 330/88 after 14 days; format: functional; conditions: 330/88, 336 h
[2] = system: Mycobacterium tuberculosis; format: functional; conditions: H37Rv 331/88, 504 h
[3] = system: Mycobacterium tuberculosis; format: functional; conditions: H37Rv 331/88, 336 h
Mycobacterium avium [4] = assay: Antimycobacterial activity against Mycobacterium avium 330/88 after 21 days; format: functional; conditions: 330/88, 504 h
Mycobacterium kansasii [5] = assay: Antimycobacterial activity against Mycobacterium kansasii 235/80 after 7 days; format: functional; conditions: 235/80, 168 h
Mycobacterium kansasii [6] = assay: Antimycobacterial activity against Mycobacterium kansasii 235/80 after 14 days; format: functional; conditions: 235/80, 336 h
Mycobacterium kansasii [7] = assay: Antimycobacterial activity against Mycobacterium kansasii 235/80 after 21 days; format: functional; conditions: 235/80, 504 h
Mycobacterium kansasii [8] = assay: Antimycobacterial activity against Mycobacterium kansasii 6509/96 after 7 days; format: functional; conditions: 6509/96, 168 h
Mycobacterium kansasii [9] = assay: Antimycobacterial activity against Mycobacterium kansasii 6509/96 after 14 days; format: functional; conditions: 6509/96, 336 h
Mycobacterium kansasii [10] = assay: Antimycobacterial activity against Mycobacterium kansasii 6509/96 after 21 days; format: functional; conditions: 6509/96, 504 h
[11] = system: Mycobacterium tuberculosis; assay: Antimycobacterial activity against Mycobacterium tuberculosis H37Ra ITM-M006710 after 48 hr by resazurin dye based microdilution method; format: functional; conditions: H37Ra ITM-M006710, 48 h
Mycolicibacterium aurum = assay: Antimycobacterial activity against Mycobacterium aurum DSM 43999 after 72 hr by resazurin dye based microdilution method; format: functional; conditions: DSM 43999, 72 h
[12] = system: Mycolicibacterium smegmatis; assay: Antimycobacterial activity against Mycobacterium smegmatis DSM 43465 after 120 hr by resazurin dye based microdilution method; format: functional; conditions: DSM 43465, 120 h
[13] = system: Mycobacterium tuberculosis H37Rv; assay: Inhibition of recombinant Mycobacterium tuberculosis H37Rv ICL1 expressed in Escherichia coli BL21 (DE3) cells at 10 uM using (+)-potassium Ds-threo-isocitrate as substrate by glyoxylate phenyl hydrazone formation assay relative to control
HepG2 [14] = assay: Cytotoxicity against human HepG2 cells assessed as reduction in cell viability after overnight incubation by MTT assay; format: cell-based
HepG2 [15] = assay: Cytostatic activity against human HepG2 cells preincubated for overnight in serum free medium followed by compound wash out and further incubated for 72 hrs in presence of serum by MTT assay; format: ADME, cell-based
in vitro = conditions: human, HepG2 cells
Description: Selectivity index, ratio of IC50 for human HepG2 cells to MIC for antimycobacterial activity against Mycobacterium tuberculosis H37Rv

SMILES	MIC (Mycobacterium avium [1]) [µM]	MIC [2] [µM]	MIC [3] [µM]	MIC (Mycobacterium avium [4]) [µM]	MIC (Mycobacterium kansasii [5]) [µM]	MIC (Mycobacterium kansasii [6]) [µM]	MIC (Mycobacterium kansasii [7]) [µM]	MIC (Mycobacterium kansasii [8]) [µM]	MIC (Mycobacterium kansasii [9]) [µM]	MIC (Mycobacterium kansasii [10]) [µM]	MIC [11]	MIC (Mycolicibacterium aurum)	MIC [12]	inhibition [13] [%]	pIC50 (HepG2 [14])	pIC50 (HepG2 [15])	selectivity ratio (in vitro)
O=C(NC1CCCCC1)Oc1ccc(Cl)cc1	500 (≈ 127 µg/mL)	500 (≈ 127 µg/mL)	500 (≈ 127 µg/mL)	1000 (≈ 254 µg/mL)	250 (≈ 63.4 µg/mL)	500 (≈ 127 µg/mL)	1000 (≈ 254 µg/mL)	125 (≈ 31.7 µg/mL)	250 (≈ 63.4 µg/mL)	250 (≈ 63.4 µg/mL)	500 µg/mL	≥ 500 µg/mL	≥ 500 µg/mL	16	< 3.90	< 3.90	> 0.3
O=C(NC12CC3CC(CC(C3)C1)C2)Oc1ccc(Cl)cc1	125 (≈ 38.2 µg/mL)	125 (≈ 38.2 µg/mL)	62.5 (≈ 19.1 µg/mL)	250 (≈ 76.5 µg/mL)	125 (≈ 38.2 µg/mL)	125 (≈ 38.2 µg/mL)	125 (≈ 38.2 µg/mL)	125 (≈ 38.2 µg/mL)	125 (≈ 38.2 µg/mL)	125 (≈ 38.2 µg/mL)	62.5 µg/mL	≥ 125 µg/mL	≥ 125 µg/mL	13	< 3.90	< 3.60	> 1
O=C(Nc1ccccc1)Oc1ccccc1C(=O)Nc1ccccc1	125 (≈ 41.5 µg/mL)	125 (≈ 41.5 µg/mL)	125 (≈ 41.5 µg/mL)	125 (≈ 41.5 µg/mL)	125 (≈ 41.5 µg/mL)	250 (≈ 83.1 µg/mL)	250 (≈ 83.1 µg/mL)	125 (≈ 41.5 µg/mL)	250 (≈ 83.1 µg/mL)	250 (≈ 83.1 µg/mL)	31.2 µg/mL	31.2 µg/mL	31.2 µg/mL	5	4.24	4.57	0.5
O=C(O)CC[N+](=O)[O-]														25			
O=C(NCc1ccccc1)Oc1ccc(Cl)cc1	500 (≈ 131 µg/mL)	250 (≈ 65.4 µg/mL)	125 (≈ 32.7 µg/mL)	500 (≈ 131 µg/mL)	125 (≈ 32.7 µg/mL)	250 (≈ 65.4 µg/mL)	500 (≈ 131 µg/mL)	125 (≈ 32.7 µg/mL)	250 (≈ 65.4 µg/mL)	500 (≈ 131 µg/mL)	31.2 µg/mL	125 µg/mL	152 µg/mL	14	< 3.90	< 3.90	> 0.5
O=C(NCCc1ccccc1)Oc1ccccc1C(=O)Nc1ccccc1	125 (≈ 45.1 µg/mL)	125 (≈ 45.1 µg/mL)	125 (≈ 45.1 µg/mL)	125 (≈ 45.1 µg/mL)	125 (≈ 45.1 µg/mL)	250 (≈ 90.1 µg/mL)	250 (≈ 90.1 µg/mL)	125 (≈ 45.1 µg/mL)	250 (≈ 90.1 µg/mL)	250 (≈ 90.1 µg/mL)	15.6 µg/mL	31.2 µg/mL	31.2 µg/mL	6	< 3.90	4.25	> 1
CC[C@@H](CO)NCCN[C@@H](CC)CO [ETHAMBUTOL]											1.8 µM	0.9 µM	1.8 µM				
Oc1ccc(Cl)cc1 [PARACHLOROPHENOL]	> 250	250 (≈ 32.1 µg/mL)	125 (≈ 16.1 µg/mL)	> 250	250 (≈ 32.1 µg/mL)	> 250	> 250	125 (≈ 16.1 µg/mL)	250 (≈ 32.1 µg/mL)	> 250							
O=C(Nc1ccccc1)Oc1ccc(Cl)cc1	500 (≈ 124 µg/mL)	500 (≈ 124 µg/mL)	250 (≈ 61.9 µg/mL)	1000 (≈ 248 µg/mL)	125 (≈ 31 µg/mL)	250 (≈ 61.9 µg/mL)	500 (≈ 124 µg/mL)	125 (≈ 31 µg/mL)	250 (≈ 61.9 µg/mL)	500 (≈ 124 µg/mL)	7.81 µg/mL	15.6 µg/mL	15.6 µg/mL	14	< 3.90	< 3.90	> 0.3
Nc1ccc(C(=O)O)c(O)c1 [AMINOSALICYLIC ACID]	32 (≈ 4.9 µg/mL)	62.5 (≈ 9.57 µg/mL)	62.5 (≈ 9.57 µg/mL)	125 (≈ 19.1 µg/mL)	125 (≈ 19.1 µg/mL)	1000 (≈ 153 µg/mL)	> 1000	32 (≈ 4.9 µg/mL)	125 (≈ 19.1 µg/mL)	500 (≈ 76.6 µg/mL)				0			35.8
CO[C@H]1/C=C/O[C@@]2(C)Oc3c(C)c(O)c4c(O)c(c(/C=N/N5CCN(C)CC5)c(O)c4c3C2=O)NC(=O)/C(C)=C\C=C\[C@H](C)[C@H](O)[C@@H](C)[C@@H](O)[C@@H](C)[C@H](OC(C)=O)[C@@H]1C [RIFAMPIN]											0.0005 to 0.009 µM	0.47 µM	12.5 to 25 µg/mL				
O=C(NC12CC3CC(CC(C3)C1)C2)Oc1ccccc1C(=O)Nc1ccccc1	125 (≈ 48.8 µg/mL)	125 (≈ 48.8 µg/mL)	125 (≈ 48.8 µg/mL)	125 (≈ 48.8 µg/mL)	125 (≈ 48.8 µg/mL)	125 (≈ 48.8 µg/mL)	125 (≈ 48.8 µg/mL)	125 (≈ 48.8 µg/mL)	250 (≈ 97.6 µg/mL)	250 (≈ 97.6 µg/mL)	250 µg/mL	≥ 250 µg/mL	250 µg/mL	9	< 3.60	3.63	> 2
O=C(NCc1ccccc1)Oc1ccccc1C(=O)Nc1ccccc1	125 (≈ 43.3 µg/mL)	125 (≈ 43.3 µg/mL)	125 (≈ 43.3 µg/mL)	125 (≈ 43.3 µg/mL)	125 (≈ 43.3 µg/mL)	250 (≈ 86.6 µg/mL)	250 (≈ 86.6 µg/mL)	125 (≈ 43.3 µg/mL)	250 (≈ 86.6 µg/mL)	250 (≈ 86.6 µg/mL)	15.6 µg/mL	31.2 µg/mL	31.2 µg/mL	8	< 3.90	4.27	> 1
O=C(NC1CCCCC1)Oc1ccccc1C(=O)Nc1ccccc1	125 (≈ 42.3 µg/mL)	125 (≈ 42.3 µg/mL)	125 (≈ 42.3 µg/mL)	125 (≈ 42.3 µg/mL)	125 (≈ 42.3 µg/mL)	250 (≈ 84.6 µg/mL)	250 (≈ 84.6 µg/mL)	125 (≈ 42.3 µg/mL)	250 (≈ 84.6 µg/mL)	250 (≈ 84.6 µg/mL)	15.6 µg/mL	15.6 µg/mL	15.6 µg/mL	8	4.31	4.29	0.4
NNC(=O)c1ccncc1 [ISONIAZID]	> 250	1 (≈ 0.137 µg/mL)	0.5 (≈ 0.0686 µg/mL)	> 250	> 250	> 250	> 250	4 (≈ 0.549 µg/mL)	8 (≈ 1.1 µg/mL)	8 (≈ 1.1 µg/mL)	0.91 to 1.82 µM	3.91 µg/mL	15.6 µg/mL	0	< 3.60		> 250
